Reference: patent US8822485B2, “Amino heteroaryl compounds as beta-secretase modulators and methods of use” (Amgen Inc., priority 2010, dated 2014)

Legend:
[1] = tested on: Aβ40 in conditioned medium of cells stably expressing Amyloid Precursor Protein (APP) (HEK cell); experiment: In vitro BACE cell-based assay (HEK cell assay, Aβ40 sandwich ELISA); details: Homo sapiens, HEK293; IC50 range class; inhibition of Aβ40 after 24 h incubation
Description: In Vitro BACE Cell-Based Assay:
The cell-based assay measures inhibition or reduction of Aβ40 □ in conditioned medium of test compound treated cells expressing amyloid precursor protein.
Cells stably expressing Amyloid Precursor Protein (APP) were plated at a density of 40K cells/well in 96 well plates (Costar). The cells were cultivated for 24 hours at 37° C. and 5% CO2 in DMEM supplemented with 10% FBS. The test compounds were then added to cells in 10-point dose response concentrations with the starting concentration being either 100 μM or 10 μM. The compounds were diluted from stock solutions in DMSO and the final DMSO concentration of the test compounds on cells was 0.1%. After 24 h of incubation with the test compounds the supernatant conditioned media was collected and the Aβ 40 levels were determined using a sandwich ELISA. The IC50 of the compound was calculated from the percent of control or percent inhibition of Aβ40 as a function of the concentration of the test compound.
The sandwich ELISA to detect Aβ 40 was performed in 96 well microtiter plates, which were pre-treated with goat anti-rabbit IgG (Pierce). The capture and detecting antibody pair that were used to detect Aβ 40 from cell supernatants were affinity purified pAb40 (Biosource) and biotinylated 6E10 (Signet Labs Inc.), respectively. The optimal concentration for the pAb40 antibody was 3 μg/ml in Superblock/TBS (Pierce) that was supplemented with 0.05% Tween 20 (Sigma). Optimal concentration for the detection antibody 6E10-biotinylated was 0.5 μg/ml in Superblock/TBS (Pierce) that had been supplemented with 2% normal goat serum and 2% normal mouse serum.
Cellular supernatants were incubated with the capture antibody for 3 h at 4° C., followed by 3 wash steps in TBS-tween (0.05%). The detecting antibody incubation was for 2 h at 4° C., again followed by the wash steps as described previously. The final readout of the ELISA is Time-Resolved Fluorescence (counts per minute) using Delfia reagents Streptavidin-Europium and Enhancement solutions (Perkin Elmer) and the Victor 2 multilabel counter (Perkin Elmer).
Of the compounds tested, the cell based assay data for each of Examples 1-33, where available at the time of filing this application, is provided in Table 1.

BACE1 = BACE1 (Homo sapiens, UniProt P56817); experiment: In vitro enzymatic BACE FRET assay; type: biochemical; details: IC50 range class; 0.2 nM enzyme, 50 nM FRET substrate, pH 4.2
Description: In Vitro Enzymatic BACE FRET (Fluorescence Resonance Energy Transfer) Assay (Enzyme Assay Data in Table 1)
The assay buffer used in this screen is 0.05 M acetate, pH 4.2, 10% DMSO final, 100 uM genapol (which is a nonionic detergent, below its Critical Micelle Concentration). The Beta Secretase enzyme (0.2 nM) is pre-incubated for one hour with inhibitors, typically in about 1 uL of DMSO according to a serial dilution, are added thereto. The assay is effectively started by the addition of FRET substrate (50 nM) and the combination is incubated for one hour. The FRET assay is terminated with by addition of Tris buffer, which raises the pH to neutrality, and the fluorescence is determined. The FRET substrate is a peptide with commercially available fluorophore and quencher, on opposite sides of the BACE cleavage site. Proteolytic cleavage of the FRET substrate releases quenching of fluorescence (excitation […] and […]).
Of the compounds tested, the in-vitro BACE FRET enzyme data for each of Examples 1-33, where available at the time of filing this application, is provided in Table 1.

Sequence of BACE1 (P56817 46-501, species assumed): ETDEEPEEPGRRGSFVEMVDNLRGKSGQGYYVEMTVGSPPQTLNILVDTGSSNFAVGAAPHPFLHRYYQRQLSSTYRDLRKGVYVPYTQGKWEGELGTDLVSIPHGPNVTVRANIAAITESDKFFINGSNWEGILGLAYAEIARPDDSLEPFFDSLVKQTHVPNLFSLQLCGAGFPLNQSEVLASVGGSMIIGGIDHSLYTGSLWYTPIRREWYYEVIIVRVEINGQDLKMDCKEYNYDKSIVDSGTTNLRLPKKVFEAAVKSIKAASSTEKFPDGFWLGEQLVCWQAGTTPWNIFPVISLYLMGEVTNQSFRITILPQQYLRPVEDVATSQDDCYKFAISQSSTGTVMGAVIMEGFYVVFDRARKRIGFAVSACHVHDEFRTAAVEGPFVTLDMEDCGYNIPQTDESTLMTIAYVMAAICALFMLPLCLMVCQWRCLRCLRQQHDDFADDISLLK

IC50 (BACE1): 100 to 1000 nM
SMILES: Cc1cccc(C(=O)N2CCCC2)c1-c1ccc2nc(N)c(COc3cc(C(F)(F)F)ncn3)cc2c1 [Example 34, (2-(2-amino-3-((6-(trifluoromethyl)pyrimidin-4-yloxy)methyl)quinolin-6-yl)-3-methylphenyl)(pyrrolidin-1-yl)methanone]
IC50 [1]: 1000 to 5000 nM
